Laboratory results reported in PubChem BioAssay (NCI).
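Each compound was tested at five concentrations against cells in 96-well plates for 48 hours. Abbreviation: GI50, concentration required for 50% inhibition of growth. TGI marks complete inhibition of growth.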

Experiments:
Assay in all cases: NCI tumour cell line growth inhibition, 48 h
[1] = test system: M14 melanoma
[2] = test system: NCI-H23 lung
[3] = test system: SW-620 colon
[4] = test system: OVCAR-4 ovarian
[5] = test system: COLO 205 colon
[6] = test system: MCF7 breast
[7] = test system: UACC-257 melanoma
[8] = test system: OVCAR-3 ovarian
[9] = test system: ACHN renal
[10] = test system: CCRF-CEM leukemia
[11] = test system: HOP-62 NSCLC
[12] = test system: RXF 393 renal
[13] = test system: SK-MEL-5 melanoma
[14] = test system: TK-10 renal
[15] = test system: DU-145 prostate
[16] = test system: HCT-116 colon
[17] = test system: SF-295 CNS
[18] = test system: NCI-H522 lung
[19] = test system: NCI-H460 lung
[20] = test system: MDA-MB-435
[21] = test system: SK-MEL-28 melanoma
[22] = test system: SK-MEL-2 melanoma
[23] = test system: MOLT-4 leukemia
[24] = test system: A498 renal
[25] = test system: HOP-92 NSCLC
[26] = test system: OVCAR-5 ovarian
[27] = test system: CAKI-1 renal
[28] = test system: OVCAR-8 ovarian
[29] = test system: MDA-MB-231 breast
[30] = test system: HCT-15 colon
[31] = test system: NCI/ADR-RES ovarian
[32] = test system: NCI-H226 lung
[33] = test system: UO-31 renal
[34] = test system: SF-539 CNS
[35] = test system: A549 NSCLC
[36] = test system: HL-60(TB) leukemia
[37] = test system: BT-549 breast
[38] = test system: HCC-2998 colon
[39] = test system: EKVX NSCLC
[40] = test system: LOX IMVI melanoma
[41] = test system: KM12 colon
[42] = test system: SF-268 CNS
[43] = test system: SN12C renal
[44] = test system: 786-0 renal
[45] = test system: UACC-62 melanoma
[46] = test system: PC-3 prostate
[47] = test system: HS 578T breast
[48] = test system: HT29 colon
[49] = test system: RPMI-8226 leukemia
[50] = test system: K-562 leukemia
[51] = test system: SK-OV-3 ovarian
[52] = test system: U251 CNS
[53] = test system: SNB-19 CNS
[54] = test system: SNB-75 CNS
[55] = test system: T-47D breast
[56] = test system: IGROV1 ovarian

Compound: O=C1c2cc3c(cc2-c2c1c1ccc(Cl)cc1c(=O)n2CCCNCCO)OCO3
- GI50 [1]: 57.4 nM
- TGI [1]: 1670 nM
- GI50 [2]: 0.0553 µM
- TGI [2]: 1.43 µM
- GI50 [3]: 50.6 nM
- TGI [3]: 0.366 µM
- GI50 [4]: 1480 nM
- TGI [4]: 3.32 µM
- GI50 [5]: 1.09 µM
- TGI [5]: 2.6 µM
- GI50 [6]: 17.6 nM
- TGI [6]: 0.179 µM
- GI50 [7]: 0.666 µM
- TGI [7]: 2.43 µM
- GI50 [8]: 1.32 µM
- TGI [8]: 2.83 µM
- GI50 [9]: 0.0383 µM
- TGI [9]: 1.44 µM
- GI50 [10]: 34.7 nM
- TGI [10]: 1000 nM
- GI50 [11]: 0.0714 µM
- TGI [11]: 1.73 µM
- GI50 [12]: 0.926 µM
- TGI [12]: 2.59 µM
- GI50 [13]: 0.387 µM
- TGI [13]: 1.58 µM
- GI50 [14]: 1.5 µM
- TGI [14]: 2.94 µM
- GI50 [15]: 59 nM
- TGI [15]: 1.68 µM
- GI50 [16]: 104 nM
- TGI [16]: 588 nM
- GI50 [17]: 0.0378 µM
- TGI [17]: 1.38 µM
- GI50 [18]: 0.0372 µM
- TGI [18]: 1.58 µM
- GI50 [19]: 34.2 nM
- TGI [19]: 1340 nM
- GI50 [20]: 1030 nM
- TGI [20]: 2.49 µM
- GI50 [21]: 1.43 µM
- TGI [21]: 3.26 µM
- GI50 [22]: 1.97 µM
- TGI [22]: 3.54 µM
- GI50 [23]: 31 nM
- TGI [23]: 512 nM
- GI50 [24]: 1.27 µM
- TGI [24]: 2.65 µM
- GI50 [25]: 1080 nM
- TGI [25]: 2.57 µM
- GI50 [26]: 1.71 µM
- TGI [26]: 3.71 µM
- GI50 [27]: 68.4 nM
- TGI [27]: 2290 nM
- GI50 [28]: 0.476 µM
- TGI [28]: 2.59 µM
- GI50 [29]: 1.73 µM
- TGI [29]: 3.49 µM
- GI50 [30]: 0.677 µM
- TGI [30]: 2.25 µM
- GI50 [31]: 0.0585 µM
- TGI [31]: 1900 nM
- GI50 [32]: 0.052 µM
- TGI [32]: 1.55 µM
- GI50 [33]: 0.0608 µM
- TGI [33]: 1.87 µM
- GI50 [34]: 0.242 µM
- TGI [34]: 1.35 µM
- GI50 [35]: 0.115 µM
- TGI [35]: 2.38 µM
- GI50 [36]: 36.7 nM
- TGI [36]: 1080 nM
- GI50 [37]: 0.941 µM
- TGI [37]: 2.49 µM
- GI50 [38]: 1.15 µM
- TGI [38]: 2.46 µM
- GI50 [39]: 1630 nM
- TGI [39]: 3.42 µM
- GI50 [40]: 46.7 nM
- TGI [40]: 1300 nM
- GI50 [41]: 1170 nM
- TGI [41]: 2.61 µM
- GI50 [42]: 66.8 nM
- TGI [42]: 2.13 µM
- GI50 [43]: 1.08 µM
- TGI [43]: 2.81 µM
- GI50 [44]: 119 nM
- TGI [44]: 0.278 µM
- GI50 [45]: 0.0427 µM
- TGI [45]: 1.6 µM
- GI50 [46]: 1070 nM
- TGI [46]: 2550 nM
- GI50 [47]: 1.73 µM
- TGI [47]: 4 µM
- GI50 [48]: 135 nM
- TGI [48]: 2.02 µM
- GI50 [49]: 145 nM
- TGI [49]: 3.27 µM
- GI50 [50]: 108 nM
- TGI [50]: 355 nM
- GI50 [51]: 0.212 µM
- TGI [51]: 1.74 µM
- GI50 [52]: 0.0403 µM
- TGI [52]: 1.4 µM

Compound: CCC/C(=N/N=C(N)N)c1ccc(NC(=O)c2cc3cc(OC)ccc3[nH]2)cc1
- GI50 [53]: 13.6 µM
- TGI [53]: 35.8 µM
- GI50 [2]: 16 µM
- TGI [2]: 36.2 µM
- GI50 [3]: 3600 nM
- TGI [3]: 20.1 µM
- GI50 [4]: 3740 nM
- TGI [4]: 18.7 µM
- GI50 [5]: 9.77 µM
- TGI [5]: 30 µM
- GI50 [6]: 2760 nM
- TGI [6]: 12.2 µM
- GI50 [7]: 16.2 µM
- TGI [7]: 37.5 µM
- GI50 [8]: 6.36 µM
- TGI [8]: 29.7 µM
- GI50 [9]: 13.1 µM
- TGI [9]: 33.1 µM
- GI50 [11]: 10.1 µM
- TGI [11]: 30.2 µM
- GI50 [12]: 10.6 µM
- TGI [12]: 30.8 µM
- GI50 [13]: 10.1 µM
- TGI [13]: 27 µM
- GI50 [14]: 17.9 µM
- TGI [14]: 39 µM
- GI50 [15]: 3570 nM
- TGI [15]: 12 µM
- GI50 [17]: 10.5 µM
- TGI [17]: 25.8 µM
- GI50 [18]: 12.7 µM
- TGI [18]: 33.9 µM
- GI50 [20]: 3810 nM
- TGI [20]: 21.7 µM
- GI50 [21]: 10.5 µM
- TGI [21]: 40.2 µM
- GI50 [22]: 18.3 µM
- TGI [22]: 38.9 µM
- GI50 [54]: 2940 nM
- TGI [54]: 18 µM
- GI50 [24]: 19.9 µM
- TGI [24]: 54.2 µM
- GI50 [25]: 1890 nM
- TGI [25]: 12.1 µM
- GI50 [26]: 14.7 µM
- TGI [26]: 32.3 µM
- GI50 [28]: 12.7 µM
- TGI [28]: 39.1 µM
- GI50 [29]: 11.5 µM
- TGI [29]: 29.4 µM
- GI50 [30]: 14.5 µM
- TGI [30]: 36.1 µM
- GI50 [31]: 79.7 µM
- TGI [31]: > 100000 nM
- GI50 [32]: 14.7 µM
- TGI [32]: 41.7 µM
- GI50 [33]: 17.9 µM
- TGI [33]: 38 µM
- GI50 [34]: 8.65 µM
- TGI [34]: 30.8 µM
- GI50 [35]: 13.1 µM
- TGI [35]: 38.1 µM
- GI50 [37]: 13.5 µM
- TGI [37]: 53.5 µM
- GI50 [38]: 15.1 µM
- TGI [38]: 39 µM
- GI50 [55]: 7.06 µM
- TGI [55]: 32.9 µM
- GI50 [41]: 2280 nM
- TGI [41]: 4.78 µM
- GI50 [42]: 5220 nM
- TGI [42]: 29.9 µM
- GI50 [43]: 14.1 µM
- TGI [43]: 33.7 µM
- GI50 [44]: 3610 nM
- TGI [44]: 29.2 µM
- GI50 [45]: 14.7 µM
- TGI [45]: 35 µM
- GI50 [47]: 14 µM
- TGI [47]: 48.4 µM
- GI50 [48]: 4490 nM
- TGI [48]: 20 µM
- GI50 [49]: 2130 nM
- TGI [49]: 5.01 µM
- GI50 [51]: 13.9 µM
- TGI [51]: 29.6 µM
- GI50 [56]: 20.2 µM
- TGI [56]: 56.9 µM
- GI50 [52]: 6.35 µM
- TGI [52]: 25.1 µM
